Source: patent US8524755B2 (priority 2009, dated 2013)

Legend:
Estrogen ER (ns) (h) = biological target: T1, Estrogen ER (ns) (h) (Homo sapiens, UniProt P03372); assay: Binding ER (ns) (h) (ag); conditions: read-out: % Inhibition of Control Specific Binding @ 10 μM
T1 construct: MCF-7 cells (cytosol); endogenous in cells; host or cells: MCF-7 cells (cytosol)
Method: (§1) Radioligand binding assay methods utilized to measure the activity of compounds of the invention will be familiar to those skilled in the art. In each assay case, the assay components such as, for example, the cell-type, ligand, reference compound and the like, will be familiar to practitioners of such an assay.
(§2) Analysis and Expression of Results: Compounds of the invention were tested in the biochemical assays and percent inhibition of specific binding was determined. The specific ligand binding to the receptors is defined as the difference between the total binding and the nonspecific binding determined in the presence of an excess of unlabelled ligand. The results are expressed as a percent inhibition of control specific binding (100−((measured specific binding/control specific binding)×100)) obtained in the presence of test compounds.

[1] = biological target: T2, Cholecystokinin CCK1 (CCKA) (h) (Homo sapiens, UniProt P32238); assay: Binding CCK1 (CCKA) (h) (ag); conditions: read-out: % Inhibition of Control Specific Binding @ 10 μM
T2 construct: expressed in transfected cells; host or cells: CHO cells
T2 sequence (P32238 1-428): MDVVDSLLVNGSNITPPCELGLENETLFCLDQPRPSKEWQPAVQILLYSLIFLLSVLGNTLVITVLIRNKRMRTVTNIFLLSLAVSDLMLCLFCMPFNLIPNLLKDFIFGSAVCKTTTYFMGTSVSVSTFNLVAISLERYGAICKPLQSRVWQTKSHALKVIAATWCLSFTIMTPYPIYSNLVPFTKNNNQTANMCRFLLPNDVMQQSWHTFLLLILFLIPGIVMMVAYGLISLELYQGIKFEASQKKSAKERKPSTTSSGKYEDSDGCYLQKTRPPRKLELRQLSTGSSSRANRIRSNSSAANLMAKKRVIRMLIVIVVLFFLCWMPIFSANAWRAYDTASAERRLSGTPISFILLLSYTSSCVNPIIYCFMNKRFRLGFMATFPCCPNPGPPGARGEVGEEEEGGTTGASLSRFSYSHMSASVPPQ
Method: as §1, §2

human androgen receptor = biological target: T3, human androgen receptor (Homo sapiens, UniProt P10275, T878A); assay: Human Androgen Receptor (AR) Binding; conditions: AR Binding Activity Ki (μM)
T3 construct: The human androgen receptor was expressed in LNCAP cells; endogenous in cells; host or cells: LNCaP cells (supernatant of homogenate)
T3 sequence (P10275 1-920 T878A): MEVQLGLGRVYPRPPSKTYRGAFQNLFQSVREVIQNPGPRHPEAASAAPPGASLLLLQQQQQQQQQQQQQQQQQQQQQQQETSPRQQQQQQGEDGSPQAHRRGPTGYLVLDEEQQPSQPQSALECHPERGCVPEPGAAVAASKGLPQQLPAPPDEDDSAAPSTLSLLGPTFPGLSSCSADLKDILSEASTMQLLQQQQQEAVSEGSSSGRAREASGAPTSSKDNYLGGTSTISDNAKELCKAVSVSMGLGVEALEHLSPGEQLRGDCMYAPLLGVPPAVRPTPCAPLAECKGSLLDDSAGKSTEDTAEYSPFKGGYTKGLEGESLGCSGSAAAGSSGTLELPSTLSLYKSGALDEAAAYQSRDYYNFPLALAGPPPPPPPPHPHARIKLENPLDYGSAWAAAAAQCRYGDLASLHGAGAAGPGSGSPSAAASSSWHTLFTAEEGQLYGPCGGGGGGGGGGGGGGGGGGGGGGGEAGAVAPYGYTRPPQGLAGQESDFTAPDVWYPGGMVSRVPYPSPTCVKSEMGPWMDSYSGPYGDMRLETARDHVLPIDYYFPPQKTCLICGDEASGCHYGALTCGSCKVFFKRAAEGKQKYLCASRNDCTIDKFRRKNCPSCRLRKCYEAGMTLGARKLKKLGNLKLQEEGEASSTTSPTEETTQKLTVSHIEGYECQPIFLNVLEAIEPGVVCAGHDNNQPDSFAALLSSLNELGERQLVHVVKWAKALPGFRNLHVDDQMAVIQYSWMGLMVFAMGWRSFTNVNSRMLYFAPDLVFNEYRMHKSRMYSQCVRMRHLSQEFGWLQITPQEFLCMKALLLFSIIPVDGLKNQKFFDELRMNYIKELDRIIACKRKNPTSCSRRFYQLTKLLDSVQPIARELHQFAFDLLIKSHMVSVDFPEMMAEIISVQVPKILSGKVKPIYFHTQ
Method: Tissue Preparation: The human androgen receptor was expressed in LNCAP cells which were cultured and harvested by trypsinization from T-175 flasks. The frozen pellet was thawed and resuspended by sonication, then diluted to the appropriate concentration. The homogenate was centrifuged @ 48,000 g for 10 min at 4° C. The supernatant was used. The protein was determined. The tissue was diluted to 0.325 mg/mL with assay buffer so that each tube received 65 μg of protein, or the final assay concentration was 0.260 mg/mL.
Buffers: 25 mM HEPES pH7.4; 1.0 mM EDTA; 10 mM sodium molybdate; 10% Glycerol; 0.5 mM PFSM (dissolved PMSF in EtOH first, before adding to remaining buffer).
Binding Reaction: (Liao, et al. “The Use of a Hydroxylapatite-Filter Steroid Receptor Assay Method in the Study of the Modulation of Androgen Receptor Interaction.” J. Steroid Biochem. (1984), 20:11-17 (with modifications)). […] The binding reaction was initiated with the addition of tissue, and was incubated at 0-4° C. (in refrigerator) for 18-22 h (overnight). The binding reaction was terminated by rapid filtration of the tube contents onto 0.1% PEI treated GF/B filters. The assay tubes were rinsed once with ice-cold […] HEPES, then rapidly rinsed with 6×1 mL/tube of the same wash buffer. Radioactivity trapped on the filters was assessed using liquid scintillation spectrophotometry after soaking the filers for at least 1 h in scintillation cocktail. […] Specific binding was calculated from the difference between the total and non-specific binding. IC50 values were determined by plotting specific binding as a function of test-compound concentration.

[2] = Reference Compound Methyltrienolone
[3] = first column, Reference Compound Mibolerone
[4] = second column, Reference Compound Mibolerone

T1 sequence (P03372 whole entry): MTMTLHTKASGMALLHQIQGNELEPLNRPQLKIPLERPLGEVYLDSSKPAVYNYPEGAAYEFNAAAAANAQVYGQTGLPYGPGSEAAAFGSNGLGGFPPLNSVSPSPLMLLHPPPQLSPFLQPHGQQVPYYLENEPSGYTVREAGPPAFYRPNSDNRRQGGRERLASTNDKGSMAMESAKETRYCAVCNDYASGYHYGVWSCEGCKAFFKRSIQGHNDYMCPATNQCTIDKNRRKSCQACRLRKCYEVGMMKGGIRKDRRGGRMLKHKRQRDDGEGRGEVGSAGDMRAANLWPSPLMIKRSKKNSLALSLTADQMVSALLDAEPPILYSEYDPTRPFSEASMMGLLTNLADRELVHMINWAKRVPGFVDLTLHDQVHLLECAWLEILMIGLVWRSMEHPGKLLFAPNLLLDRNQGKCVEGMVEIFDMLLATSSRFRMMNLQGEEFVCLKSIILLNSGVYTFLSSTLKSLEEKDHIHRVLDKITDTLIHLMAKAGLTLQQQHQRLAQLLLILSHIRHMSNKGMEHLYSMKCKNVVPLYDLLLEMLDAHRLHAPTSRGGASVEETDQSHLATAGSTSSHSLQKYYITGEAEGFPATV

SMILES	inhibition at 10 µM (Estrogen ER (ns) (h)) [%]	inhibition at 10 µM [1] [%]	Ki (human androgen receptor; [2]) [µM]	Ki (human androgen receptor; [3]) [µM]	Ki (human androgen receptor; [4]) [µM]
CC1(C)C(=O)N(c2ccc(C#N)c(C(F)(F)F)c2)C(=S)N1c1ccc(C(=O)O)c(F)c1 [(MI), 4-(3-(4-cyano-3-(trifluoromethyl)phenyl)-5,5-dimethyl-4-oxo-2-thioxoimidazolidin-1-yl)-2-fluorobenzoic acid]	-8	47	> 10		
CC1(C)C(=O)N(c2ccc(C#N)c(C(F)(F)F)c2)C(=S)N1c1ccc(C(N)=O)c(F)c1 [(MII), 4-(3-(4-Cyano-3-(trifluoromethyl)phenyl)-5,5-dimethyl-4-oxo-2-thioxoimidazolidin-1-yl)-2-fluorobenzamide]	3	0	0.059	0.074	0.051
CC1(C)C(=O)N(c2ccc(C#N)c(C(F)(F)F)c2)C(=O)N1c1ccc(C(N)=O)c(F)c1 [(MIII), 4-(3-(4-cyano-3-(trifluoromethyl)phenyl)-5,5-dimethyl-2,4-dioxoimidazolidin-1-yl)-2-fluorobenzamide]	-2	-14	0.314	0.83	1.5
CNC(=O)c1ccc(N2C(=O)N(c3ccc(C#N)c(C(F)(F)F)c3)C(=O)C2(C)C)cc1F [(MIV), 4-(3-(4-cyano-3-(trifluoromethyl)phenyl)-5,5-dimethyl-2,4-dioxoimidazolidin-1-yl)-2-fluoro-N-methylbenzamide]	-11	25	0.361	0.69	0.97
